Source: paper PMC10354055, “An optimized Nurr1 agonist provides disease-modifying effects in Parkinson’s disease models” (Nature Communications, 2023)
Several values for one entry are separate records, joined by “and”; a condition that tells them apart may be missing. Identical values can stand only once.

What was measured:
[1] = system: N27-A cells; experiment: Cell viability, MTT reduction, MPP+-treated N27-A cells; format: cell-based, rat; conditions: Fig. 2a, CQ 100 µM, 4A7C-301 1 µM
[2] = molecular target: T1, Nurr1-LBD (Mus musculus, UniProt Q06219); experiment: Luciferase reporter assay, Nurr1-LBD, SK-N-BE(2)C cells; format: cell-based; conditions: for Luciferase activity (fold): Fig. 1d
T1 construct: transfected with pCMV-fNurr1, pGAL-Nurr1(LBD), pGAL-Nor1(LBD) or pGAL-Nur77(LBD) and reporter construct; expressed in transfected cells; host or cells: SK-N-BE(2)C (human neuroblastoma), N27-A (rat dopaminergic), MN9D (murine dopaminergic)
T1 sequence (Q06219 360-595 limits assumed): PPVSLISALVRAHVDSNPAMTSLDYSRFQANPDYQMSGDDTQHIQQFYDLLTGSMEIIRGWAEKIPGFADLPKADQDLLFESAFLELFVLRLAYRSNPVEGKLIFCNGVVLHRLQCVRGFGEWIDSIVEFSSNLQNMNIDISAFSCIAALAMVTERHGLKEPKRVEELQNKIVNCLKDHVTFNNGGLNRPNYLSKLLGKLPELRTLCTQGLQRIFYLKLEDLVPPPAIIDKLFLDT
Description: (§1) Nurr1 transactivity was normalized to β-galactosidase activity.

[3] = system: AAV-αSyn-induced male mice; experiment: Dopamine ELISA in SN and STR, AAV-αSyn-injected mice; format: in vivo, mouse; conditions: for DA levels in the SN and STR (in words): αSynWT-mice
Description: (§2) Adeno-associated viruses (AAVs) expressing GFP only or αSyn (wild-type or A53T) were kindly provided by Dr. Yoon Seong Kim from the University of Central Florida. Recombinant AAV vectors were produced using modified pAAV-IRES-hrGFP (Agilent) to express wild-type and mutant human αSyn under control of the CMV promoter. Viral particles (AAV2) were produced at the University of Iowa Viral Vector Core according to standard operating procedures (https://medicine.uiowa.edu/vectorcore/). […] AAV vectors were delivered into the substantia nigra unilaterally by stereotaxic surgery.
For MPTP-induced mice, the left hemisphere of each group (n = 5) was used for analysis and compared to the vehicle-treated group (VEH). For AAV-αSyn-injected mouse model, the viral vector injected side (left hemisphere; ipsilateral) of each group (n = 3) was compared to the non-injected side (right hemisphere; contralateral).

[4] = system: MPTP-induced male mice; experiment: Rotarod, sub-chronic MPTP-induced PD model mice; format: in vivo, mouse; conditions: for Latency to fall: Figure 4b, MPTP-induced mice, individual animal values
Method: MPTP (Sigma-Aldrich) was intraperitoneally (i.p.) injected (30 mg/kg) for 5 days (Day 1-5). […] To test dyskinetic involuntary behavior, an L-DOPA injected group was included, which received 50 mg/kg of L-DOPA and 15 mg/kg of benserazide (Sigma-Aldrich) (i.p.) for 16 days (Day 1–16). All compounds were administered 6 h post-MPTP injection to avoid any effect of compounds on the MPTP metabolism in the brain. Motor and non-motor related behavior tests were performed on the following days as described in Fig. 4a in an assessor- and observer-blinded fashion. Pre-training and baseline setup for motor-related behaviors were performed 3 days prior to the injections. Mice were sacrificed and subjected to immunohistochemistry. Mice were housed at the Animal Care Facilities of McLean Hospital under a 12-h light/12-h dark cycle, ambient temperature and humidity. Animals were handled in accordance with McLean Hospital’s Institutional Animal Care and Use Committee (Protocol #: 2015N000002) and followed National Institutes of Health guidelines.
Mice were pre-trained on an automated 5-lane rotarod unit (10 rpm, 3 min) for 2 days and the baseline was measured (10 rpm, 90 sec) before the rotarod test (3 days before the MPTP injection or the first rotarod test at week 2). Rotarod measurements were performed using an accelerating protocol, accelerated smoothly from 2 to 30 rpm for 5 min. Time on the rotating rod was measured automatically by placing a trip switch under the floor beneath the rotating drum.

[5] = molecular target: T1, Nurr1-LBD; experiment: Luciferase reporter assay, Nurr1-LBD, N27-A cells; format: cell-based; conditions: for EC50: Supplementary Fig. 1d,e
Description: as §1

[6] = system: AAV-αSyn-induced male mice; experiment: IHC/stereology of TH+ and NeuN+ neurons and TH+ fibers, AAV-αSyn-induced mice; format: in vivo, mouse; conditions: for loss of TH+ and NeuN+ neurons and TH+ fibers (in words): αSynWT-mice
Description: as §2
Images were acquired using a KEYENCE microscope and quantified as the number or optical density of immunoreactive cells using ImageJ software.
The numbers of TH^+ DA neurons, NeuN^+ neurons, pS129 αSyn^+ cells in the SN and Iba-1^+ microglia in the SN and striatum were stereologically counted in six coronal sections (30 µm thickness) taken every 6th section (180 µm intervals) for each brain. The boundaries of the SN and striatum were delimited at low magnification (4X) to estimate each total area. Immunoreactive cells were counted with images taken at high magnification (×40) by a single blinded investigator. The group mean of the total number of immunoreactive cells from each brain was transformed as percentage of the number in the control group (%). For AAV-αSyn-induced mice, the group mean of the total number of cells in the ipsilateral side was transformed as a percentage of that observed in the contralateral side.

[7] = Nurr1-LBD and full-length Nurr1, SK-N-BE(2)C cells, Fig. 1d,e
[8] = Nurr1 activation, Supplementary Table 1, values in µM
[9] = Supplementary Figure S10e, αSynA53T
[10] = Supplementary Figure S10e, αSynWT
[11] = Supplementary Figure S10f, αSynA53T
[12] = Supplementary Figure S10f, αSynWT

SMILES: CCN(CC)CCCC(C)Nc1ccnc2cc(Cl)ccc12 (stereo not drawn) [CQ, chloroquine]
- MTT reduction (%) ([1]; Control): 57.8947% and 66.3158% and 61.0526% and 65.2632%
- MTT reduction (%) ([1]; Nurr1 KD): 34.0206% and 28.866% and 35.0515% and 27.8351%
- MTT reduction (%) ([1]; Nurr1 OE): 79.3814% and 82.4742% and 84.5361% and 87.6289%
- EC50 [2, 7]: 50 to 70 µM
- EC50 [2, 8]: 50.2 µM
- DA level (% of contralateral side) [3, 9]: 32.648 % of contralateral side and 32.350 % of contralateral side and 33.119 % of contralateral side
- DA level (% of contralateral side) [3, 10]: 73.112 % of contralateral side and 72.962 % of contralateral side and 71.012 % of contralateral side
- DA level (% of contralateral side) [3, 11]: 33.096 % of contralateral side and 33.011 % of contralateral side and 33.320 % of contralateral side
- DA level (% of contralateral side) [3, 12]: 70.155 % of contralateral side and 68.851 % of contralateral side and 68.899 % of contralateral side
- DA levels in the SN and STR (in words) [3]: significantly increased
- Latency to fall [4]: 188.53 s and 158.67 s and 132.1 s and 179.3 s and 127.13 s and 200.87 s and 173.6 s and 164.1 s
- EC50 [5]: ~10 µM
- loss of TH+ and NeuN+ neurons and TH+ fibers (in words) [6]: partially prevented

SMILES: CCN1CCN(c2cc(N3CCN(CC)CC3)nc(NCCNc3ccnc4cc(Cl)ccc34)n2)CC1 [4A7C-301, N^1-(4,6-bis(4-ethylpiperazin-1-yl)pyrimidin-2-yl)-N^2-(7-chloroquinolin-4-yl)ethane-1,2-diamine]
- MTT reduction (%) ([1]; Control): 65.2632% and 62.1053% and 64.2105% and 61.0526%
- MTT reduction (%) ([1]; Nurr1 KD): 30.9278% and 29.8969% and 34.0206%
- MTT reduction (%) ([1]; Nurr1 OE): 86.5979% and 95.8763% and 87.6289% and 83.5052%
- Luciferase activity (fold), Nurr1 ([2]; Fig. 1f, CQ 100 µM, 4A7C-301 20 µM): 16.1033 fold and 17.0687 fold and 15.1126 fold
- Luciferase activity (fold) ([2]; 0.1 µM): 1.566 fold and 1.556 fold and 1.583 fold
- Luciferase activity (fold) ([2]; 1 µM): 2.853 fold and 2.913 fold and 2.848 fold
- Luciferase activity (fold) ([2]; 10 µM): 8.938 fold and 9.512 fold and 11.2109 fold
- Luciferase activity (fold) ([2]; 20 µM): 17.8435 fold and 18.5652 fold and 17.952 fold
- EC50 [2, 7]: 7 to 8 µM
- Maximum fold activity ([2]; Nurr1 activation, Supplementary Table 1): 18.12 ± 3.02 fold and 18.12 fold
- EC50 [2, 8]: 6.53 µM
- DA level (% of contralateral side) [3, 9]: 52.259 % of contralateral side and 51.869 % of contralateral side and 51.727 % of contralateral side
- DA level (% of contralateral side) [3, 10]: 78.777 % of contralateral side and 81.036 % of contralateral side and 79.879 % of contralateral side
- DA level (% of contralateral side) [3, 11]: 55.117 % of contralateral side and 54.305 % of contralateral side and 55.007 % of contralateral side
- DA level (% of contralateral side) [3, 12]: 77.063 % of contralateral side and 74.376 % of contralateral side and 74.108 % of contralateral side
- DA levels (in words) ([3]; αSynA53T-mice): increased
- DA levels in the SN and STR (in words) [3]: significantly increased
- motor function, rotarod (in words) ([4]; CQ 40, 4A7C-301 5, L-DOPA 50 mg/kg/day, i.p., 16 days): significantly rescued
- Latency to fall [4]: 133.23 s and 202.2 s and 133.57 s and 139.3 s and 213.2 s and 211.5 s and 122.9 s and 231.93 s
- potency relative to CQ [5]: approximately 50 times
- EC50 [5]: ~0.2 µM
- loss of TH+ and NeuN+ neurons and fibers (in words) ([6]; αSynA53T-mice): significantly prevented
- loss of TH+ and NeuN+ neurons and TH+ fibers (in words) [6]: partially prevented
